Assay results reported in patent US11261183B2, “Sulfoximine glycosidase inhibitors” (Asceneuron SA, priority 2016, dated 2022).

Columns and labels:
[1] = biological target: Human O-GlcNAcase (His-Tagged hOGA) (Homo sapiens (Human), UniProt O60502); test: Human O-GlcNAcase enzyme inhibition assay; format: biochemical; conditions: His-Tagged hOGA 20 nM, FL-GlcNAc 10 μM, 60 min, room temperature, pH 6.5; read-out: Enzymatic OGA IC50
Procedure: Example B01: Human O-GlcNAcase enzyme inhibition assay
5 μl of the appropriate concentration of a solution of inhibitor in McIlvaine's Buffer (pH 6.5) in 2% DMSO (for a dose response curve calculation) is added into each well of a 384-well plate (Greiner, 781900). Then, 20 nM of His-Tagged hOGA and 10 μM of FL-GlcNAc (Fluorescein mono-beta-D-(2-deoxy-2-N-acetyl) glucopyranoside; Marker Gene Technologies Inc, M1485) were added to the 384-well plate for a final volume of 20 μl. After incubation for 60 min at room temperature, the reaction was terminated by the addition of 10 μL of stop buffer (200 mM glycine, pH 10.75).

[2] = Protein binding in mice plasma using Rapid Equilibrium Dialysis; format: in vitro ADME, CD1 mice; conditions: 37° C.; for % fraction unbound in mouse plasma: CD1 mouse plasma, 5 hours; for fraction unbound at 5 h, 1 µM: male, CD1, mouse, plasma, pH 7.4, CD1 mouse plasma
Procedure: Example B04: Protein binding in mice plasma using Rapid Equilibrium Dialysis
• CD1 Mice Plasma: pooled male, K2-EDTA ([…]2, Bioreclammation, USA • Phosphate Buffered Saline (1×PBS), pH 7.4, 100 mM (Sigma, Cat No. P4417) • RED inserts (Pierce, Cat No. 9006, 8 kDa MWCO) • Sample Analysis: LC-MS/MS Methods • Preparation of DMSO Stock Solution
From 20 mM DMSO stock solutions of reference and test compounds, 1 mM DMSO intermediate working solutions are prepared. From 1 mM intermediate working solutions, 100 μM DMSO working solutions are prepared. • Sample Preparation Procedure:
Selected plasma is brought from −20° C. to 37° C. using water bath before its use. Test solution is prepared by adding the DMSO working solution of the reference or test compound (2 μL; 100 μM) to the selected plasma (198 μL). Spiked plasma (200 μl) is transferred to sample compartment of RED insert placed in the teflon plate. 350 μl of 1×PBS is added in the buffer compartment of RED insert. The teflon plate is covered with sealing mat and agitated at 37° C. for 5 hours at 500 RPM in a Thermomixer. After incubation time, an aliquot of plasma (50 μl) from sample compartment is mixed with blank 1×PBS (50 μl). Similarly, an aliquot of buffer (50 μl) from buffer compartment is mixed with blank plasma (50 μl). Quenching solution (200 μL, acetonitrile containing internal standard tolbutamide (0.5 μg/mL)) is added and the resulting solutions are mixed using a vortex mixer and centrifuged (Eppendorf 5415, 13792 g). Supernatants are analyzed using a Mass Spectrometer. The sample (supernatant fraction, 5 μL) is injected into the LC-MS/MS instrument. • Chromatographic Conditions: LC-MS/MS: API 4000 LC-MS/MS Software: Analyst Version 1.6.1 Column Phenomenex Synergy 30*4.6*5μ Column Oven: 40° C. Mode: ESI Positive Injection volume: 5 μl Flow Rate: […] Buffer: 0.1% Formic acid in Water Method: Isocratic Method/Gradient Composition: A) 0.1% Formic acid in Water B) 0.1% Formic acid in Methanol
After the concentration of free drug and total drug has been determined by LCMS/MS, percent plasma protein binding can be calculated as follows:
[formula] Following this protocol, % fraction unbound in plasma from different species can be also measured.

Chain of Human O-GlcNAcase (His-Tagged hOGA) (O60502 whole entry): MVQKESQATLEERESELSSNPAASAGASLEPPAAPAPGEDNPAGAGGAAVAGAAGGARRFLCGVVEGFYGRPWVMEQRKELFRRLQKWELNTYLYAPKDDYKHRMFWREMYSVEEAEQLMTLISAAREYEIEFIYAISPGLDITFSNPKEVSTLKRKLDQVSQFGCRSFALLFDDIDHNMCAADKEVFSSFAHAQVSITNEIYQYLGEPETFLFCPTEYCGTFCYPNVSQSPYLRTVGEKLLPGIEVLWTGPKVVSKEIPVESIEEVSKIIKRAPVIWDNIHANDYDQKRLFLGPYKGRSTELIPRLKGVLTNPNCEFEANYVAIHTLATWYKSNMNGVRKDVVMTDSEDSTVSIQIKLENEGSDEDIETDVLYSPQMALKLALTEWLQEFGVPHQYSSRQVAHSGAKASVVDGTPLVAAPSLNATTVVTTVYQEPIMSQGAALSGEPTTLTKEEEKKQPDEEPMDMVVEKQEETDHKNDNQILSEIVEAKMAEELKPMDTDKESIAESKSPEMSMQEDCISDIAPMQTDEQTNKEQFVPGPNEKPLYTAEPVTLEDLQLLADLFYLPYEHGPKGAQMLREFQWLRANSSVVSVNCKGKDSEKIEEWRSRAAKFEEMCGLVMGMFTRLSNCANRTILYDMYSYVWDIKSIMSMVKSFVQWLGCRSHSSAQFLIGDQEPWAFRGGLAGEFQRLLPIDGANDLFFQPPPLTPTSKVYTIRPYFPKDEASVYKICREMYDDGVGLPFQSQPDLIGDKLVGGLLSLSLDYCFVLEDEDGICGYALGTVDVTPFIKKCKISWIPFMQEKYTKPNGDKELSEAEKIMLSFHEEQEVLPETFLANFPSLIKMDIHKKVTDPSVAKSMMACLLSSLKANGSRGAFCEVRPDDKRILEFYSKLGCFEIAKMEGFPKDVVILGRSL

IC50 [1]	% fraction unbound in mouse plasma [2]	fraction unbound at 5 h, 1 µM [2]	Structure (SMILES)
< 50 nM	12.81%	–	Cc1nc2cc(C(C)N3CCN(c4ncc(S(C)(=N)=O)cn4)CC3)ccc2s1 (single isomer, unassigned) [Example 53]
< 50 nM	–	0.278	CN=S(C)(=O)c1cnc(N2CCN(C(C)c3ccc4scnc4c3)CC2)nc1 (single isomer, unassigned) [Example 37]
< 50 nM	–	0.113	CC(c1ccc2c(c1)OCC2)N1CCN(c2ncc3c(n2)CCS(=N)(=O)C3)CC1 (racemic) [Example 61, 2-(4-(1-(2,3-dihydrobenzofuran-6-yl)ethyl)piperazin-1-yl)-6-imino-5,6,7,8-tetrahydro-6λ^4-thiopyrano[4,3-d]pyrimidine 6-oxide]
< 50 nM	–	0.101	Cc1nc2cc(C(C)N3CCN(c4ncc(S(C)(=N)=O)cn4)CC3)ccc2s1 (racemic) [Example 42, Imino(methyl)(2-(4-(1-(2-methylbenzo[d]thiazol-5-yl)ethyl)piperazin-1-yl)pyrimidin-5-yl)-λ^6-sulfanone]
50 to 200 nM	–	0.0959	CN=S(C)(=O)c1ccc(N2CCN(C(C)c3ccc4sc(C)nc4c3)CC2)nc1 (racemic) [Example 47, methyl(6-(4-(1-(2-methylbenzo[d]thiazol-5-yl)ethyl)piperazin-1-yl)pyridin-3-yl)(methylimino)-λ^6-sulfanone]
< 50 nM	45.51%	–	CC(c1ccc2scnc2c1)N1CCN(c2ncc(S(C)(=N)=O)cn2)CC1 (single isomer, unassigned) [Example 36]
< 50 nM	–	0.214	CN=S(C)(=O)c1cnc(N2CCN(C(C)c3ccc4sc(C)nc4c3)CC2)nc1 (racemic) [Example 45, methyl(2-(4-(1-(2-methylbenzo[d]thiazol-5-yl)ethyl)piperazin-1-yl)pyrimidin-5-yl)(methylimino)-λ^6-sulfanone]
< 50 nM	–	0.0534	CCN=S(C)(=O)c1cnc(N2CCN(C(C)c3ccc4sc(C)nc4c3)CC2)nc1 (racemic) [Example 48, (ethylimino)(methyl)(2-(4-(1-(2-methylbenzo[d]thiazol-5-yl)ethyl)piperazin-1-yl)pyrimidin-5-yl)-λ^6-sulfanone]
50 to 200 nM	–	0.39	Cc1nc2cc(C(C)N3CCN(c4ncc(S(C)(=N)=O)cn4)CC3)ccc2o1 (racemic) [Example 55, imino(methyl)(2-(4-(1-(2-methylbenzo[d]oxazol-5-yl)ethyl)piperazin-1-yl)pyrimidin-5-yl)-λ^6-sulfanone]
< 50 nM	–	0.0848	CC(c1ccc2scnc2c1)N1CCN(c2ncc3c(n2)CCS(=N)(=O)C3)CC1 (racemic) [Example 59, 2-(4-(1-(benzo[d]thiazol-5-yl)ethyl)piperazin-1-yl)-6-imino-5,6,7,8-tetrahydro-6λ^4-thiopyrano[4,3-d]pyrimidine 6-oxide]

Continued, compound first:

Structure (SMILES)	IC50 [1]	% fraction unbound in mouse plasma [2]	fraction unbound at 5 h, 1 µM [2]
CCS(=N)(=O)c1cnc(N2CCN(C(C)c3ccc4c(c3)OCC4)CC2)nc1 (racemic) [Example 3, (2-(4-(1-(2,3-dihydrobenzofuran-6-yl)ethyl)piperazin-1-yl)pyrimidin-5-yl)(ethyl)(imino)-λ^6-sulfanone]	< 50 nM	–	0.25
CC(c1ccc2c(c1)OCC2)N1CCN(c2ccc(S(C)(=N)=O)cc2)CC1 (racemic) [Example 11, (4-(4-(1-(2,3-dihydrobenzofuran-6-yl)ethyl)piperazin-1-yl)phenyl)(imino)(methyl)-λ^6-sulfanone]	< 50 nM	–	0.21
COCCN=S(C)(=O)c1cnc(N2CCN(C(C)c3ccc4scnc4c3)CC2)nc1 (racemic) [Example 29, (2-(4-(1-(benzo[d]thiazol-5-yl)ethyl)piperazin-1-yl)pyrimidin-5-yl)((2-methoxyethyl)imino)(methyl)-λ^6-sulfanone]	< 50 nM	–	0.286
CCS(=N)(=O)c1ccc(N2CCN(C(C)c3ccc4c(c3)OCC4)CC2)nc1 (racemic) [Example 6, (6-(4-(1-(2,3-dihydrobenzofuran-6-yl)ethyl)piperazin-1-yl)pyridin-3-yl)(ethyl)(imino)-λ^6-sulfanone]	< 50 nM	–	0.261
CC(c1ccc2c(c1)OCC2)N1CCN(c2ncc(S(C)(=N)=O)cn2)CC1 (single isomer, unassigned) [Example 12]	< 50 nM	–	0.424
CC(c1ccc2c(c1)OCCC2)N1CCN(c2ncc(S(C)(=N)=O)cn2)CC1 (racemic) [Example 21, (2-(4-(1-(chroman-7-yl)ethyl)piperazin-1-yl)pyrimidin-5-yl)(imino)(methyl)-λ^6-sulfanone]	50 to 200 nM	–	0.222
CCCS(=N)(=O)c1cnc(N2CCN(C(C)c3ccc4scnc4c3)CC2)nc1 (racemic) [Example 24, (2-(4-(1-(benzo[d]thiazol-5-yl)ethyl)piperazin-1-yl)pyrimidin-5-yl)(imino)(propyl)-λ^6-sulfanone]	< 50 nM	–	0.134
CC(c1ccc2c(c1)OCC2)N1CCN(c2ncc(N=S(C)(C)=O)cn2)CC1 (racemic) [Example 9]	< 50 nM	–	0.376
CC(c1ccc2scnc2c1)N1CCN(c2ncc(S(C)(=N)=O)cn2)CC1 (single isomer, unassigned) [Example 34, (2-(4-((S)-1-(benzo[d]thiazol-5-yl)ethyl)piperazin-1-yl)pyrimidin-5-yl)(imino)(methyl)-λ^6-sulfanone or (2-(4-((R)-1-(benzo[d]thiazol-5-yl)ethyl)piperazin-1-yl)pyrimidin-5-yl)(imino)(methyl)-λ^6-sulfanone]	< 50 nM	–	0.257
CCN=S(C)(=O)c1cnc(N2CCN(C(C)c3ccc4scnc4c3)CC2)nc1 (racemic) [Example 27]	< 50 nM	–	0.186
CC(c1ccc2c(c1)OCC2)N1CCN(c2ncc(S(C)(=N)=O)cn2)CC1 (racemic) [Example 1, (2-(4-(1-(2,3-dihydrobenzofuran-6-yl)ethyl)piperazin-1-yl)pyrimidin-5-yl)(imino)(methyl)λ^6-sulfanone]	< 50 nM	–	0.393
CCCS(=N)(=O)c1cnc(N2CCN(C(C)c3ccc4c(c3)OCC4)CC2)nc1 (racemic) [Example 4, (2-(4-(1-(2,3-dihydrobenzofuran-6-yl)ethyl)piperazin-1-yl)pyrimidin-5-yl)(imino)(propyl)-λ^6-sulfanone]	< 50 nM	–	0.142
CC(c1ccc2scnc2c1)N1CCN(c2ccc(S(C)(=N)=O)cn2)CC1 (racemic) [Example 26, (6-(4-(1-(benzo[d]thiazol-5-yl)ethyl)piperazin-1-yl)pyridin-3-yl)(imino)(methyl)-λ^6-sulfanone]	< 50 nM	–	0.18
CN=S(C)(=O)c1cnc(N2CCN(C(C)c3ccc4scnc4c3)CC2)nc1 (racemic) [Example 25, (2-(4-(1-(benzo[d]thiazol-5-yl)ethyl)piperazin-1-yl)pyrimidin-5-yl)(methyl)(methylimino)-λ^6-sulfanone]	< 50 nM	–	0.211
CCS(=N)(=O)c1cnc(N2CCN(C(C)c3ccc4scnc4c3)CC2)nc1 (racemic) [Example 23, (2-(4-(1-(benzo[d]thiazol-5-yl)ethyl)piperazin-1-yl)pyrimidin-5-yl)(ethyl)(imino)-λ^6-sulfanone]	< 50 nM	–	0.215
